Experiments:
Experiment in all cases: relative viability vs DMSO control (72 h) (fraction); higher = more viable cells
HT1080 = system: HT1080
Method in brief: (§1)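 Sarcoma cell lines were plated in 384 wells to reach 80–90% confluence, treated after 24 h with 2.5 µl of serially diluted compound and held 72 h at 37 °C, 5% CO2. Relative viability was taken as percent growth from ATPLite readings, averaged over up to triplicate wells. The values were rescaled so that 1 marks full and 0 marks none.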

KHOS-NP = system: KHOS-NP
Method in brief: as §1

RD-ES = system: RD-ES
Method in brief: as §1

SW684 = system: SW684
Method in brief: as §1

SYO-1 = system: SYO-1
Method in brief: as §1

C#Cc1cccc(Nc2ncnc3cc(OCCOC)c(OCCOC)cc23)c1 [Erlotinib]
relative viability
Conditions | HT1080 | KHOS-NP | RD-ES | SW684 | SYO-1
0.00017 µM | 1.09 | 1.11 | 0.971 | 1.16 | 0.999
0.00051 µM | 1.1 | 1.092 | 0.974 | 1.15 | 0.998
0.00152 µM | 1.09 | 1.11 | 0.975 | 1.14 | 0.978
0.00457 µM | 1.08 | 1.11 | 0.992 | 1.23 | 0.979
0.01372 µM | 1.09 | 1.11 | 0.965 | 1.23 | 0.982
0.04115 µM | 1.12 | 1.1 | 0.967 | 1.19 | 0.9892
0.1235 µM | 1.11 | 1.095 | 0.998 | 1.17 | 0.967
0.3704 µM | 1.097 | 1.1 | 0.994 | 1.19 | 0.991
1.111 µM | 1.1 | 1.1 | 0.987 | 1.2 | 0.962
3.333 µM | 1.16 | 1.086 | 0.936 | 1.18 | 0.92
10 µM | 0.942 | 1.04 | 0.691 | 1.05 | 0.724

Cc1ccc(NC(=O)c2ccc(CN3CCN(C)CC3)cc2)cc1Nc1nccc(-c2cccnc2)n1 [Imatinib]
relative viability
Conditions | HT1080 | KHOS-NP | RD-ES | SW684 | SYO-1
0.00017 µM | 1.06 | 1.01 | 0.954 | 0.968 | 0.98
0.00051 µM | 1 | 1.001 | 0.957 | 0.9679 | 0.974
0.00152 µM | 0.989 | 1.01 | 0.969 | 0.985 | 0.965
0.00457 µM | 1.02 | 1 | 0.952 | 1.02 | 0.964
0.01372 µM | 1.03 | 1.02 | 0.957 | 0.948 | 0.948
0.04115 µM | 0.987 | 0.997 | 0.961 | 0.9868 | 0.907
0.1235 µM | 1.01 | 1.03 | 0.967 | 1.01 | 0.804
0.3704 µM | 0.968 | 1.01 | 0.962 | 1.02 | 0.744
1.111 µM | 0.973 | 1.01 | 0.951 | 1.03 | 0.704
3.333 µM | 0.942 | 0.8795 | 0.923 | 0.973 | 0.63
10 µM | 0.643 | 0.609 | 0.61 | 0.59 | 0.155

N#CCC1(n2cc(-c3ncnc4[nH]ccc34)cn2)CN(C2CCN(C(=O)c3ccnc(C(F)(F)F)c3F)CC2)C1 [Itacitinib]
relative viability
Conditions | HT1080 | KHOS-NP | RD-ES | SW684 | SYO-1
0.00017 µM | 1.04 | 1.087 | 0.92 | 1.1 | 0.969
0.00051 µM | 1.02 | 1.11 | 0.949 | 1.09 | 0.921
0.00152 µM | 1.04 | 1.09 | 0.919 | 1.09 | 0.927
0.00457 µM | 1.01 | 1.07 | 0.956 | 1.1 | 0.91
0.01372 µM | 1.03 | 1.06 | 0.927 | 1.07 | 0.859
0.04115 µM | 0.991 | 1.048 | 0.913 | 1.07 | 0.825
0.1235 µM | 1.03 | 1.035 | 0.909 | 1.06 | 0.802
0.3704 µM | 1.004 | 1.01 | 0.909 | 1.08 | 0.792
1.111 µM | 0.993 | 0.991 | 0.924 | 1.1 | 0.752
3.333 µM | 1.02 | 0.942 | 0.887 | 1.06 | 0.72
10 µM | 1 | 0.914 | 0.853 | 0.977 | 0.698

N#Cc1ccnc(N2C(=O)CC[C@H]2C(=O)N(c2cncc(F)c2)[C@H](C(=O)NC2CC(F)(F)C2)c2ccccc2Cl)c1 [Ivosidenib]
relative viability
Conditions | HT1080 | KHOS-NP | RD-ES | SW684 | SYO-1
0.00017 µM | 0.987 | 1.05 | 0.948 | 1.056 | 1.03
0.00051 µM | 1.07 | 1.05 | 0.976 | 1.07 | 1.01
0.00152 µM | 1.03 | 1.07 | 1 | 1.08 | 1.07
0.00457 µM | 1.0513 | 1.07 | 0.977 | 1.11 | 1.02
0.01372 µM | 1.09 | 1.05 | 0.996 | 1.13 | 1.01
0.04115 µM | 1.07 | 1.05 | 0.986 | 1.06 | 1.01
0.1235 µM | 1.11 | 1.06 | 1 | 1.11 | 1.02
0.3704 µM | 1.106 | 1.03 | 1.02 | 1.1 | 1.01
1.111 µM | 1.1 | 1.05 | 0.986 | 1.1 | 1.02
3.333 µM | 1.09 | 1.05 | 0.973 | 1.1 | 1.01
10 µM | 1.05 | 1.06 | 0.9403 | 1 | 1

COc1cc2nccc(Oc3ccc(NC(=O)NC4CC4)c(Cl)c3)c2cc1C(N)=O [Lenvatinib]
relative viability
Conditions | HT1080 | KHOS-NP | RD-ES | SW684 | SYO-1
0.00017 µM | 1.07 | 1.07 | 0.959 | 1.13 | 1.07
0.00051 µM | 1.06 | 1.04 | 0.98 | 1.12 | 1.02
0.00152 µM | 1.08 | 1.05 | 0.959 | 1.14 | 1.02
0.00457 µM | 1.05 | 1.07 | 0.961 | 1.133 | 0.9627
0.01372 µM | 1.08 | 1.08 | 0.923 | 1.13 | 0.864
0.04115 µM | 1.06 | 1.08 | 0.942 | 1.13 | 0.721
0.1235 µM | 1.06 | 1.06 | 0.875 | 1.11 | 0.606
0.3704 µM | 1.07 | 1.091 | 0.857 | 1.14 | 0.504
1.111 µM | 1.09 | 1.07 | 0.852 | 1.16 | 0.472
3.333 µM | 1.09 | 1.09 | 0.835 | 1.19 | 0.459
10 µM | 1.12 | 1.08 | 0.815 | 1.11 | 0.432
